Literature values, collected in patent US20140100282A1, “INTRANASAL ADMINISTRATION OF PHARMACEUTICAL AGENTS FOR TREATMENT OF NEUROLOGICAL DISEASES” (priority 2012, published 2014).
Like-named read-outs stand apart in the source and are kept apart here.

What was measured:
[1] = mouse, intravenous, autoradiography after 30 minutes
[2] = animal and humans
amyloid beta = settings: monotherapy at doses that lead to activation of AMPK
tau = settings: transgenic mice
[3] = tested on: protein phosphatase 2A (PP2A); settings: murine primary neurons from wild-type and human tau transgenic mice
[4] = intranasal

For `NCCc1c[nH]cn1` [histamine], the “penetration into the brain or spinal cord through the BBB” value [1] is given as “zero penetration”.

In the case of `CN(C)C(=N)NC(=N)N` [metformin], the “absorption from the blood to the brain” value [2] is given as “negligible”, the “generation of amyloid beta species” value (amyloid beta) is given as “significantly increases” and the “phosphorylation of Ser202” value (tau; 100 nM) is given as “decreased phosphorylation of Ser202 slightly”. The “phosphorylation of Ser202” value (tau; 10 μM) was “significantly reduced”, the “migration of glioblastoma cells” value (glioblastoma cells) was “significantly inhibited” and the “growth of glioblastoma cells” value (glioblastoma cells; basal and leptin-stimulated) was “reduced basal and leptin-stimulated growth of glioblastoma cells in a dose-dependent manner”. The PP2A activity [3] was “induces PP2A activity”.

In the case of “insulin: intranasal insulin (20 and 40 IU)”, the “cognition on Alzheimer Disease's Assessment Scale-cognitive subscale” value ([4]; 20 and 40 IU, compared with placebo) is given as “less decline in cognition”, the “recall of episodic memories” value ([4]; 20 or 40 IU for 4 months, relative to placebo) is given as “improved recall of episodic memories” and the “brain glucose uptake and utilization” value ([4]; over the 4-month period, compared with placebo) is given as “reduced decline in brain glucose uptake and utilization”.
